Broadly, the EC50 is the concentration giving half of the maximal effect. In general, half-life refers to the time needed for the level to fall by half in the phase considered. Read a high half-life as slow loss. What is called Cmax is the highest concentration seen after dosing. Broadly, the Tmax is the time from dosing to the highest level.

The test system of series [1] is HBV DNA in HepG2.2.15 cells. The series can be described thus: In vitro anti-HBV activity assay (HBV DNA in HepG2.2.15 supernatant, qPCR). The format is cell-based. As to conditions: Hepatitis B virus, HepG2.2.15, 192 h; inhibition of HBV DNA in supernatant, 8 days culture. How it is done:
1) 100 μL of HepG2.2.15 cells were seeded at a number of 1.2×10^5 cells per well into a 96-well cell culture plate, and then the cells were cultured in a 37° C. incubator with 5% carbon dioxide (CO2) overnight. On day 2, the compounds to be tested were diluted with DMSO in 3-fold gradient to eight concentrations in total. Then the compounds were diluted 100-fold with culture medium, and 100 μL of the diluted compounds were taken and added to the cell-containing plate in a final volume of 200 μL, and the final concentration of DMSO was 0.5%, and two duplicate wells were used. The cells were cultured in a 37° C. incubator with 5% CO2 for 3 days. On day 5, the solutions in the cell culture plate were replaced with fresh culture medium containing the same concentrations of compounds. When culture was performed for 8 days, cell culture plate supernatant was collected for the extraction of HBV DNA.
2) Detection of HBV DNA by real-time quantitative PCR: the total DNA in the supernatant was extracted with QIAamp 96 DNA Blood Kit, and the content of HBV DNA was detected by quantitative PCR using HBV specific primers and probes. 20 μL PCR pre-mixed solution and 5 μL HBV DNA sample or HBV plasmid standard sample were added to a quantitative PCR plate for reaction. The HBV plasmid standard sample was diluted in 10-fold gradient to seven concentrations from 10^7 to 10 copies/μL. The quantitative PCR reaction procedure was as follows: pre-denaturation at 95° C. for 10 minutes; denaturation at 95° C. for 15 seconds, reaction at 60° C. for 1 minute, and this cycle was repeated 40 times. The inhibition rate of each well against HBV DNA was calculated according to the following equation, and the inhibition rate data of the compounds were subjected to a non-linear fitting analysis using GraphPad Prism software to obtain EC50 values of the compounds. HBV DNA inhibition rate %=(1−copy number of HBV DNA of the sample/copy number of HBV DNA of DMSO control)*100% The assay results are shown in Table 1 below.

Series [2] in a line: Pharmacokinetic study for mouse (single intravenous or gavage administration). The format is in vivo, mice. Particulars: for AUC(0-t): read-out: AUC0-24 h. How it is done: This experiment aims to evaluate the pharmacokinetic behavior of the compounds after a single intravenous or gavage administration in mice. As for the intravenous administration, the compounds were formulated into 0.5 mg/mL clear solutions, vehicle: 5% DMSO/5% 12-hydroxy stearate (solutol)/90% water; as for the gavage administration, the compounds were formulated into 2 mg/mL suspensions, vehicle: 0.5% sodium carboxymethylcellulose/0.2% Tween 80/99.3% water.
The concentrations of the compounds in plasma were determined by high-performance liquid chromatography-tandem mass spectrometry (LC-MS/MS). The retention time, chromatogram acquisition and integration of the chromatograms of the compounds and the internal standard (diclofenac) were processed using the software Analyst (Applied Biosystems), and data statistics were processed using the software Watson LIMS (Thermo Fisher Scientific) or Analyst (Applied Biosystems). The concentration unit of the analyte in the sample is ng/mL, 3 significant digits were retained, and all the values represented by percentages (e.g., % deviation and % coefficient of variation, etc.) have one decimal place. Each calibration curve contains at least 6 concentration levels. The calibration standard samples were formulated using stock solutions from different sources from the quality control samples. If the deviation between the calculated concentration of a calibration standard sample and the indicated value exceeds ±15.0% (the lower limit of quantitation exceeds ±20.0%), such standard sample should be excluded in regression analysis. The excluded calibration standard samples should be less than 25%, and each calibration curve contains at least 6 calibration standard samples that meet the acceptable standard. If the calibration standard samples at the lower and upper limits of quantification need to be excluded, the upper and lower limits of quantification of this batch of analytes will be increased and decreased accordingly.
Plasma concentrations were processed using a non-compartmental model of the WinNonlin™ Version 6.3 (Pharsight, Mountain View, Calif.) pharmacokinetic software, and pharmacokinetic parameters were calculated using the linear logarithmic trapezoidal method. The pharmacokinetic parameters to be calculated include, but are not limited to (if the data is not allowed), T1/2, Vdss, CL, AUC0-24h of the intravenous group; Cmax, Tmax, AUC0-24h and bioavailability (F %) of the oral gavage group.

Series [3] deals with HBV. The series is described as follows: In vivo activity assay of HBV DNA in mouse plasmid model of tail vein high-pressure injection (Example 6). More on the design: species or system female BABL/c mice. As to conditions: 30 mg/Kg, gavage, twice a day. How it is done:
The purpose of this study was to test the inhibitory effect of the compound (Example 6) against HBV in mice through a mouse model of high-pressure tail vein injection. In this experiment, female BABL/c mice were used, and the mice were 6-7 weeks old. The HBV plasmid DNA was extracted by using pAAV2-HBV 1.3 mer with Qiagen EndoFree Plasmid Giga kit at a concentration of 1000 ng/μL. The resulting solution was diluted with normal saline before use and stored at 4° C. until use.
100 μL of whole blood was taken from each mouse approximately 4 hours after the first administration On days 1, 3, and 5, and the whole blood was collected into a tube containing sodium heparin, centrifuged at 4° C. at 7000 rpm for 10 minutes, and the supernatant was taken to obtain plasma. The plasma was stored in a refrigerator at −80° C. and transported to an analytical laboratory for testing under dry ice freezing condition.
1) DNA in plasma was extracted, and the experimental procedure was carried out with reference to the instruction for QIAamp 96 DNA Blood Kit.
A qPCR reaction mixture was formulated (see Table 6). The qPCR reaction mixture, sample and standard sample were added to a 96-well reaction plate. The standard sample was plasmid DNA containing the full-length sequence of type D HBV. The standard sample was diluted from 10^7 copies/μL in 10-fold gradient to successively obtain 10^6˜10^1 copies/μL of DNA standard samples. PCR reaction: 95° C., 10 min; 95° C., 15 seconds; 60° C., 1 minute; 40 cycles.
Liver tissue was taken and homogenized with a tissue grinder. After centrifugation, the supernatant was transferred to a new centrifuge tube and digested with proteinase K digestion solution for 3 hours. The resulting mixture was cooled, and then RNAse A was added thereto to incubate for 30 minutes. The RNase A-treated mixture was extracted twice with an equal volume of phenol chloroform isoamyl alcohol to remove residual protein. The supernatant was transferred to a new centrifuge tube, and isopropanol was added thereto to precipitate the DNA. The DNA precipitation was washed twice with 70% ethanol. The precipitation was then air-dried and TE (10 mM Tris-HCl, pH 8.0, 1 mM EDTA) was added thereto to dissolve the DNA.
The DNA concentrations were measured with Nanodrop and adjusted to 10 ng/μL for all the samples. 5 μL samples were added to the quantitative PCR reaction system for quantitative PCR.
HBV DNA content=DNA content detected by HBV primer-DNA content detected by pAAV2 primer.

Where [4] appears, read: plasma, intravenous injection, 1 mg/Kg.

Like-named read-outs stand apart in the source and are kept apart here.

Molecule `C[C@H]1Cc2noc(-c3ccc(F)cc3F)c2CN1C(=O)Nc1cc(F)c(F)c(F)c1` [Example 6] came in with an EC50 in series [1] of 4.9 nM. Besides, in series [2] (oral gavage, 10 mg/Kg), the F was 58.4%. In addition, the clearance in series [2] (setting [4]) turned out to be 2.84 mL/min/kg. Besides, the half-life in series [2] (setting [4]) is 9.31 h. The AUC(0-t) in series [2] (setting [4]) came to 11.4 µM·h; in series [2] (plasma, oral gavage, 10 mg/Kg) it was 66.7 µM·h. The Vd in series [2] (plasma, intravenous injection, 1 mg/Kg, read-out: Vdss) amounted to 2.33 L/kg. In series [2] (plasma, oral gavage, 10 mg/Kg), this molecule showed a Cmax of 4.94 µM. Also, in series [2] (plasma, oral gavage, 10 mg/Kg), the Tmax came out at 0.5 h. The “Log HBV DNA mean value” in series [3] (liver tissue after 7 days of administration, solvent control 5.67) is 3.09 copy number/μL; in series [3] (plasma, Day 1, solvent control 2.22, Log(LLOQ) = 1.60) it was 2.23 copy number/μL; in series [3] (plasma, Day 3, solvent control 4.51, Log(LLOQ) = 1.60), 1.74 copy number/μL; in series [3] (plasma, Day 5, solvent control 5.01, Log(LLOQ) = 1.60), 2.02 copy number/μL; in series [3] (plasma, Day 7, solvent control 3.30, Log(LLOQ) = 1.60) it was 1.85 copy number/μL.

(Values after patent publication US11572372B2, “Anti-HBVtetrahydroisoxazolo[4,3-c]pyridine compounds” (CHIA TAI TIANQING PHARMACEUTICAL GROUP CO., LTD., priority 2017, dated 2023).)
